Measured values reported in BindingDB's records for patent US20240083857 (Bayer Pharma Aktiengesellschaft, 2024).

Target: Epidermal growth factor receptor (Homo sapiens, UniProt P00533)
Test: EGFR Kinase Assay
Protocol: For the assay 50 nL of a 100 fold concentrated solution of the test compound in DMSO was pipetted into a black low volume 384 well microtiter plate (Greiner Bio-One, Frickenhausen, Germany), 2 μL of a solution of EGFR in aqueous assay buffer [50 mM Hepes/HCl pH 7.0, 1 mM MgCl2, 5 mM MnCl2, 0.5 mM activated sodium ortho-vanadate, 0.005% (v/v) Tween-20]were added and the mixture was incubated for 15 min at 22° C. to allow pre-binding of the test compounds to the enzyme before the start of the kinase reaction. […] The concentration of EGFR was adjusted depending of the activity of the enzyme lot and was chosen appropriate to have the assay in the linear range, typical concentration were about 3 U/ml. The reaction was stopped by the addition of 5 μl of a solution of HTRF detection reagents (0.1 μM streptavidine-XL665 [Cis Biointernational] and 1 nM PT66-Tb-Cryptate, an terbium-cryptate labelled anti-phospho-tyrosine antibody from Cis Biointernational [instead of the PT66-Tb-cryptate PT66-Eu-Chelate from Perkin Elmer can also be used]) in an aqueous EDTA-solution (80 mM EDTA, 0.2% (w/v) bovine serum albumin in 50 mM HEPES pH 7.5).The resulting mixture was incubated 1 h at 22° C. to allow the binding of the biotinylated phosphorylated peptide to the streptavidine-XL665 and the PT66-Eu-Chelate. Subsequently the amount of phosphorylated substrate was evaluated by measurement of the resonance energy transfer from the PT66-Tb-Cryptate to the streptavidine-XL665.

Epidermal growth factor receptor, sequence (P00533 whole entry): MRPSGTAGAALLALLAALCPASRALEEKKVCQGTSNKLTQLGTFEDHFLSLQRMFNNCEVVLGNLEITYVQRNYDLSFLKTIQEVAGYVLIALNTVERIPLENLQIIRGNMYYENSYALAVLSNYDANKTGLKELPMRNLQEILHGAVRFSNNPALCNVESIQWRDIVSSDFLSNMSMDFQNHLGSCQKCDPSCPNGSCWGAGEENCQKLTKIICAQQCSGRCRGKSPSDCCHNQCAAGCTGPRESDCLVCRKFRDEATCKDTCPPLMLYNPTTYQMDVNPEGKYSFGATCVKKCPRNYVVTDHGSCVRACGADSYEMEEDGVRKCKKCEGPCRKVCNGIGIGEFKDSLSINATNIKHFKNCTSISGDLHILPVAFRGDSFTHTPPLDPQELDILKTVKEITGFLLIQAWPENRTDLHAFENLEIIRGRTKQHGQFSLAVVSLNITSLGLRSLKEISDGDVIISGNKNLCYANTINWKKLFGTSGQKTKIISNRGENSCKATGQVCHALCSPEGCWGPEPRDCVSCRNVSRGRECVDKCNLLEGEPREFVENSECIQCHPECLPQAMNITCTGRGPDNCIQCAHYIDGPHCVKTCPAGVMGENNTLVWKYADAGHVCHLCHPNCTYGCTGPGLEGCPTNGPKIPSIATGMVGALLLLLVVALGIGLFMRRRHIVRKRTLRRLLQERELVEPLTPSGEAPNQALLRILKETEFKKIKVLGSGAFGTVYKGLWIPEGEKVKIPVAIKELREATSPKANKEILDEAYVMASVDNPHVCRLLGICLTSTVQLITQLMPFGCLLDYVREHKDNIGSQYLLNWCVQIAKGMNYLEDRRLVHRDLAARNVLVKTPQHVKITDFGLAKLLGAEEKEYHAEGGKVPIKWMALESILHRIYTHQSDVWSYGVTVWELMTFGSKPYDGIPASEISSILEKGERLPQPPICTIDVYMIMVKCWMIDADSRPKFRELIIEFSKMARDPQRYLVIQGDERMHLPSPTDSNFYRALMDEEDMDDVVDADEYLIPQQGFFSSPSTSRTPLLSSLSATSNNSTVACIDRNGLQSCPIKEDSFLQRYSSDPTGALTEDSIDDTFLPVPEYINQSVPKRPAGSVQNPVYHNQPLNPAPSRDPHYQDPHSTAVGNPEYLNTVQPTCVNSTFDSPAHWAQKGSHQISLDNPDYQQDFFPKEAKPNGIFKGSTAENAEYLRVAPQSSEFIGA

SMILES | IC50 [µM]
Cc1nc(N[C@H](C)c2ccccc2)c2cc(Br)ccc2n1 [US20240083857, Example 29] | > 20
Cc1nc(N[C@H](C)c2ccc(F)cc2)c2cc(Br)ccc2n1 [US20240083857, Example 31] | > 20
COc1cc2nc(C)nc(N[C@H](C)c3cc4cccc(OC)c4o3)c2cc1OC [US20240083857, Example 33] | > 20
COc1cc2nc(C)nc(N[C@H](C)c3ccc(C#N)cc3)c2cc1OC [US20240083857, Example 189] | > 20
COc1cc2nc(C)nc(NC(C)c3ccc(-c4ccccc4CNCC(N)=O)s3)c2cc1OC (stereo unspecified) [US20240083857, Example 279] | > 20
COc1cc2nc(C)nc(NC(C)c3ccc(-c4ccccc4CNCC(=O)N(C)C)s3)c2cc1OC (stereo unspecified) [US20240083857, Example 280] | > 20
CNC(=O)CNCc1ccccc1-c1ccc(C(C)Nc2nc(C)nc3cc(OC)c(OC)cc23)s1 (stereo unspecified) [US20240083857, Example 282] | > 20
COCCNC(=O)CNCc1ccccc1-c1ccc(C(C)Nc2nc(C)nc3cc(OC)c(OC)cc23)s1 (stereo unspecified) [US20240083857, Example 283] | > 20
COc1cc2nc(C)nc(NC(C)c3ccc(-c4ccccc4CNCC(=O)NCc4ccccc4)s3)c2cc1OC (stereo unspecified) [US20240083857, Example 284] | > 20
COc1cc2nc(C)nc(NC(C)c3ccc(-c4ccccc4CNCC(=O)Nc4ccccc4)s3)c2cc1OC (stereo unspecified) [US20240083857, Example 289] | > 20
Cc1nc(NC(C)c2ccc(-c3ccccc3CN(C)C)s2)c2cc(N3CCCC3)ccc2n1 (stereo unspecified) [US20240083857, Example 415] | > 20
